Tests used:
Format in all cases: cell-based, human
[1] = system: A375; test: MTT cytotoxicity assay, 72 h; details: A375, skin
Excerpt: (§1) Human breast (MCF-7) and colon (HCT-15, DDL1, SW480 and CaCo-2) carcinoma cell lines along with melanoma (A375) were obtained from the American Type Culture Collection (ATCC, Rockville, Md.). A431 are human cervical carcinoma cells kindly provided by Prof. F. Zunino (Molecular Pharmacology Unit, Experimental Oncology and Molecular Medicine, Istituto Nazionale dei Tumori, Milan, Italy). […] G. Marverti (Dept. of Biomedical Science, University of Modena, Italy). LoVo human colon-carcinoma cell line and its multidrug-resistant sublime (LoVo MDR) were kindly provided by Prof F. Maj one (Department of Biology of Padova University, Italy). […] Cell lines were maintained in the logarithmic phase at 37° C. in a 5% carbon dioxide atmosphere using the following culture media containing 10% fetal calf serum (Euroclone, Milan, Italy), antibiotics (50 units mL^−1 penicillin and 50 μg mL^−1 streptomycin), and 2 mM L-glutamine in: i) RPMI-1640 medium (Euroclone) for MCF-7, HCT-15, A431, DLD 1, 2008, and C13* cells; ii) F-12 HAM'S (Sigma Chemical Co.) for LoVo, LoVo MDR, and LoVo-OXP cells; iii) DMEM for A375 and SW 480 cells; and iv) MEM for CaCo-2 cells.
(§2) The growth inhibitory effect towards tumor cell lines was evaluated by means of the MTT (3-(4,5-dimethylthiazol-2-yl)-2,5-diphenyltetrazolium bromide) assay (Alley, M. C., et al., Cancer Res. 1988, 48, 589-601).
(§3) Briefly, depending upon the growth characteristics of the cell line, 3-8×10^3 cells well^−1, were seeded in 96-well microplates in growth medium (100 μL) and then incubated at 37° C. in a 5% carbon dioxide atmosphere. After 24 h, the medium was removed and replaced with a fresh one containing the compound to be studied, at the appropriate concentration, dissolved in 0.9% sodium chloride solution just before use. Triplicate cultures were established for each treatment. After 72 h, each well was treated with […] of a 5 mg mL^−1 MTT saline solution and, after 5 h of incubation, 100 μL of a sodium dodecylsulfate (SDS) solution in 0.01 M HCl were added. After an overnight incubation, the inhibition of cell growth induced by the tested complexes was determined by measuring the absorbance of each well at 570 nm using a BioRad 680 microplate reader. Mean absorbance for each drug dose was expressed as percentage of the control and plotted vs. drug concentration. Dose-response curves were fitted and IC50 values were calculated with four parameter logistic model (4PL).
(§4) Compound 1 was prepared for the first time almost twenty years ago however, until now, it had been tested (both in vitro and in vivo) only in a limited number of tumor cell lines (Hoeschele, J. D., et al., J. Med. Chem. 1994, 37, 2630-2636 and Shamsuddin, S., et al., J. Inorg. Biochem. 1996, 61, 291-301). The Pt(II) and Pt(IV) complexes containing isomeric forms of diaminocyclohexane, [PtCl2(cis-1,4-DACHA](1), [PtCl2(1R,2R-DACH)] (2), [Pt(OXA)(cis-1,4-DACH)] (3), cis,trans,cis-[Pt^IVCl2(OH)2(cis-1,4-DACH)] (4), cis,trans,cis-[Pt^IVCl2(DCA)2(cis-1,4-DACH)] (5), [Pt(CBDCA)(cis-1,4-DACH)] (6), cis,trans,cis-[Pt^IV(OXA)(OH)2(cis-1,4-DACH)] (7), and cis,trans,cis-[Pt^IV(OXA)(DCA)2(cis-1,4-DACH)] (8) were evaluated for their cytotoxic activity towards a panel of human tumor cell lines including cervical (A431), breast (MCF-7), cancers along with a melanoma (A375) and 4 different colon cancer cell lines corresponding to different stages of the disease progression (HCT-15, SW480, CaCo-2, DLD-1). The cytotoxicity was evaluated by means of the MTT test for 72 h treatment with increasing concentrations of the tested compounds.

[2] = system: A431; test: MTT cytotoxicity assay, 72 h; details: A431, cervix
Excerpt: as §1, §2, §3, §4

[3] = system: DLD-1; test: MTT cytotoxicity assay, 72 h; details: DLD-1, colon
Excerpt: as §1, §2, §3, §4

[4] = system: HCT-15; test: MTT cytotoxicity assay, 72 h; details: HCT-15, colon
Excerpt: as §1, §2, §3, §4

[5] = system: MCF-7; test: MTT cytotoxicity assay, 72 h; details: MCF-7, breast
Excerpt: as §1, §2, §3, §4

[6] = system: SW480; test: MTT cytotoxicity assay, 72 h; details: SW480, colon
Excerpt: as §1, §2, §3, §4

[7] = system: 2008 ovarian cancer cells; test: MTT cytotoxicity assay, cross-resistance profile; details: 72 h
Excerpt: as §1, §2, §3
(§5) A LoVo cell line retaining a multidrug resistance phenotype was also considered (LoVo MDR). Cross-resistance profiles were evaluated by means of the resistance factor (RF), which is defined as the ratio between the IC50 value for the resistant cells and that arising from the sensitive cells (Table 2).

[8] = system: C13* cisplatin resistant ovarian cancer cells; test: MTT cytotoxicity assay, cross-resistance profile; details: for R.F. (resistance factor): IC50 C13* / IC50 2008, cross-resistance with cisplatin
Excerpt: as §1, §2, §3, §5

[9] = system: LoVo-OXP oxaliplatin resistant colon cancer cells; test: MTT cytotoxicity assay, cross-resistance profile; details: for R.F. (resistance factor): IC50 LoVo-OXP / IC50 LoVo, cross-resistance with oxaliplatin
Excerpt: as §1, §2, §3, §5

[10] = system: LoVo MDR multidrug resistant colon carcinoma subline; test: MTT cytotoxicity assay, cross-resistance profile
Excerpt: as §1, §2, §3, §5
In Table 2 are also reported the results obtained in a multidrug resistant (MDR) colon carcinoma subline, LoVo MDR, in which the resistance to doxorubicin, a drug belonging to the MDR spectrum, is associated with an overexpression of multi-specific drug transporters, such as the 170 kDa P-glycoprotein (P-gp) (Wersinger, C., et al., Amino Acids 2000, 19, 667-685). It is well known that acquired MDR, whereby cells become refractory to multiple drugs, poses most important challenge to the success of anticancer chemotherapy.

Compound: O=C1[O][Pt-2]2([NH2+]C3CCCC[C@H]3[NH2+]2)[O]C1=O (stereo partly drawn) [oxaliplatin, [(1R,2R)-cyclohexane-1,2diamine](ethanedioato)platinum(II), reference compound]
- IC50 [1]: 2.37 ± 1.31 µM
- IC50 [2]: 3.69 ± 1.03 µM
- IC50 [3]: 5.81 ± 1.93 µM
- IC50 [4]: 1.25 ± 1.05 µM
- IC50 [5]: 3.36 ± 1.69 µM
- IC50 [6]: 4.2 ± 0.75 µM
- IC50 [7]: 1.65 ± 1.01 µM
- IC50 ([8]; C13*, 72 h, MTT): 3.33 ± 1.84 µM
- R.F. (resistance factor) [8]: 2.0
- R.F. (resistance factor) ([8]; listed as OXP): 2
- R.F. (resistance factor) [9]: 17
- R.F. (resistance factor) ([9]; listed as OXP): 17
- IC50 ([9]; LoVo-OXP, 72 h, MTT): 17.5 ± 1.79 µM
- R.F. (resistance factor) ([10]; IC50 LoVo-MDR / IC50 LoVo): 1.3
- IC50 ([10]; LoVo-MDR, 72 h, MTT): 1.36 ± 0.81 µM

Source: patent US9220705B2, “Method of treating colorectal cancer” (priority 2013, dated 2015)
